Measured values: PubChem BioAssay AID743504 (Broad Institute, 2014)
The source made the active and inactive calls.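 Rule for the calls: active = compounds blocking the hormone-driven reporter light with IC50 under 35 µM; inactive = IC50 above 35 µM, or no measured IC50.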

What follows are compounds tested against Bursicon receptor (Drosophila rickets, LGR2) (assay: inhibition of bursicon-stimulated LGR2 cAMP signaling – cell-based, HEK293, CRE-luciferase, beta-gal normalized, dry powder, set 4, dose response (AID 743504)). Conditions: antagonist.

| Structure (SMILES) | IC50 |
| --- | --- |
| C[C@@H]1CCCCO[C@H](CN(C)C(=O)Nc2ccc(F)cc2)[C@H](C)CN([C@@H](C)CO)C(=O)c2cc(NC(=O)C3CCCCC3)ccc2O1 | > 35 µM (inactive) |
| COc1ccc(NC(=O)N(C)C[C@@H]2OCCCC[C@H](C)Oc3ccc(NC(=O)C4CCCCC4)cc3C(=O)N([C@H](C)CO)C[C@@H]2C)cc1 | < 35 µM |
| C[C@H](CO)N1C[C@H](C)[C@H](CN(C)C(=O)Nc2ccc3c(c2)OCO3)OCCCC[C@H](C)Oc2ccc(NC(=O)C3CCCCC3)cc2C1=O | < 35 µM |
| C[C@H](CO)N1C[C@H](C)[C@H](CN(C)C(=O)Nc2ccc(F)cc2)OCCCC[C@H](C)Oc2ccc(NC(=O)C3CCCCC3)cc2C1=O | < 35 µM |
| C[C@H](CO)N1C[C@H](C)[C@H](CN(C)C(=O)Nc2ccccc2)OCCCC[C@H](C)Oc2ccc(NC(=O)C3CCCCC3)cc2C1=O | < 35 µM |
